Measurements as given in patent US6861390B2, “Derivatives of UK-2A” (priority 2001, dated 2005).

Columns and labels:
[1] = system: Leptosphaeria nodorum (LEPTNO); assay: Glume Blotch of Wheat, whole plant 24 Hour Protectant (T2); settings: Parastagonospora nodorum; wheat (cultivar Yuma), sprayed at 100 ppm, inoculated after 24 hours; read-out: T2 LEPTNO in vivo 1 Day Protectant, control of fungal infection
[2] = system: Rhizoctonia solani (RHIZSO); assay: microbe, parasite or virus in culture; format: cell-based; settings: read-out: T10 RHIZSO in vitro Growth Inhibition
[3] = system: Mycosphaerella graminicola (Septoria tritici, SEPTTR); assay: microbe, parasite or virus in culture; format: cell-based; settings: Zymoseptoria tritici, read-out: T11 SEPTTR in vitro Growth Inhibition
[4] = system: Puccinia recondita (PUCCRT); assay: Brown Rust of Wheat, whole plant 24 Hour Protectant (T5); settings: wheat (cultivar Yuma), sprayed at 100 ppm, inoculated after 24 hours, read-out: T5 PUCCRT in vivo 1 Day Protectant, control of fungal infection
Ustilago maydis (USTIMA) = assay: microbe, parasite or virus in culture; format: cell-based; settings: Mycosarcoma maydis, read-out: T12 USTIMA in vitro Growth Inhibition
[5] = system: Septoria tritici (SEPTTR); assay: Leaf Blotch of Wheat, whole plant 24 Hour Protectant (T6); settings: Zymoseptoria tritici; wheat (cultivar Monon), sprayed at 100 ppm, inoculated after 24 hours; read-out: T6 SEPTTR in vivo 1 Day Protectant, control of fungal infection
[6] = system: Phytophthora infestans (PHYTIN); assay: microbe, parasite or virus in culture; format: cell-based; settings: in Secale cereale, read-out: T8 PHYTIN in vitro Growth Inhibition
[7] = system: Erysiphe graminis (ERYSGT); assay: Powdery Mildew of Wheat, whole plant 24 Hour Protectant (T1); settings: Blumeria graminis, in Triticum aestivum, read-out: T1 ERYSGT in vivo 1 Day Protectant, control of fungal infection
Protocol: Compound formulation was accomplished by dissolving technical materials in acetone, with serial dilutions then made in acetone to obtain desired concentrations. Final treatment volumes were obtained by adding 9 volumes 0.01% Triton X-100.
Powdery Mildew of Wheat (Erysiphe graminis—ERYSGT) (24 Hour Protectant): Wheat (cultivar Monon) was grown in a soilless peat-based potting mixture (“Metromix”) and mineral soil (50/50 mix) until the seedlings were 10-20 cm tall. These plants were then sprayed to run-off with the test compound at a rate of 100 ppm. After 24 hours the test plants were inoculated by dusting with conidia from powdery mildew infected wheat plants. The plants were then transferred to the greenhouse until disease developed on the untreated control plants.

[8] = system: Stagonospora nodorum (Leptosphaeria nodorum, LEPTNO); assay: microbe, parasite or virus in culture; format: cell-based; settings: Parastagonospora nodorum, read-out: T7 LEPTNO in vitro Growth Inhibition
[9] = system: Phytophthora infestans (PHYTIN); assay: whole plant or invertebrate; settings: in Solanum lycopersicum, 24 h, read-out: T3 PHYTIN in vivo 1 Day Protectant, control of fungal infection
[10] = system: Magnaporthe grisea (Pyricularia oryzae, PYRIOR); assay: microbe, parasite or virus in culture; format: cell-based; settings: read-out: T9 PYRIOR in vitro Growth Inhibition

`CCOCOc1c(OC)ccnc1C(=O)N[C@H]1COC(=O)[C@H](Cc2ccccc2)[C@@H](OC(=O)C(C)C)[C@H](C)OC1=O` [Compound 5] gave a pest or weed control at 100 ppm [1] of 75 to 100%, an inhibition at 25 ppm [2] of under 80% and an inhibition at 25 ppm [3] of under 80%. The pest or weed control at 100 ppm [4] was 75 to 100%, the inhibition at 25 ppm (Ustilago maydis (USTIMA)) was under 80% and the pest or weed control at 100 ppm [5] was 75 to 100%. For the same compound, the melting point was 60 to 62 °C, the inhibition at 25 ppm [6] was under 80% and the pest or weed control at 100 ppm [7] was 25 to 74%. It also gave an inhibition at 25 ppm [8] of over 80%, a pest or weed control at 100 ppm [9] of under 25% and an inhibition at 25 ppm [10] of under 80%.
In the case of `COc1ccnc(C(=O)N[C@H]2COC(=O)[C@H](Cc3ccccc3)[C@@H](OC(=O)C(C)C)[C@H](C)OC2=O)c1OCOC(C)C` [Compound 7], the pest or weed control at 100 ppm [1] was 75 to 100%, the inhibition at 25 ppm [2] was under 80% and the inhibition at 25 ppm [3] was under 80%. For the same compound, the pest or weed control at 100 ppm [4] was 75 to 100%, the inhibition at 25 ppm (Ustilago maydis (USTIMA)) was over 80% and the pest or weed control at 100 ppm [5] was 75 to 100%. For the same compound, the melting point was 124 to 127 °C, the inhibition at 25 ppm [6] was under 80% and the pest or weed control at 100 ppm [7] was 25 to 74%. The inhibition at 25 ppm [8] was over 80%, the pest or weed control at 100 ppm [9] was under 25% and the inhibition at 25 ppm [10] was under 80%.
In the case of `COc1ccnc(C(=O)N[C@H]2COC(=O)[C@H](Cc3ccccc3)[C@@H](OC(=O)C(C)C)[C@H](C)OC2=O)c1OCOCC(C)C` [Compound 9], the pest or weed control at 100 ppm [1] was 75 to 100%, the inhibition at 25 ppm [2] was over 80% and the inhibition at 25 ppm [3] was over 80%. The pest or weed control at 100 ppm [4] was 75 to 100%, the inhibition at 25 ppm (Ustilago maydis (USTIMA)) was over 80% and the pest or weed control at 100 ppm [5] was 25 to 74%. The melting point was 133 to 136 °C, the inhibition at 25 ppm [6] was under 80% and the pest or weed control at 100 ppm [7] was under 25%. The inhibition at 25 ppm [8] was over 80%, the pest or weed control at 100 ppm [9] was under 25% and the inhibition at 25 ppm [10] was under 80%.
`COc1ccnc(C(=O)N[C@H]2COC(=O)[C@H](Cc3ccccc3)[C@@H](OC(=O)C(C)C)[C@H](C)OC2=O)c1OCOCc1ccccc1` [Compound 10] gave a pest or weed control at 100 ppm [1] of 75 to 100%, an inhibition at 25 ppm [2] of under 80% and an inhibition at 25 ppm [3] of over 80%. For the same compound, the pest or weed control at 100 ppm [4] was 75 to 100%, the inhibition at 25 ppm (Ustilago maydis (USTIMA)) was under 80% and the melting point was 56 to 60 °C. It also gave an inhibition at 25 ppm [6] of over 80%, a pest or weed control at 100 ppm [7] of under 25% and an inhibition at 25 ppm [8] of over 80%. The pest or weed control at 100 ppm [9] was under 25% and the inhibition at 25 ppm [10] was under 80%.
`COc1ccnc(C(=O)N[C@H]2COC(=O)[C@H](Cc3ccccc3)[C@@H](OC(=O)C(C)C)[C@H](C)OC2=O)c1OCO[Si](C)(C)C` [Compound 13] gave a pest or weed control at 100 ppm [1] of 75 to 100%, an inhibition at 25 ppm [2] of over 80% and an inhibition at 25 ppm [3] of under 80%. It also gave a pest or weed control at 100 ppm [4] of 75 to 100%, an inhibition at 25 ppm (Ustilago maydis (USTIMA)) of under 80% and a pest or weed control at 100 ppm [5] of 75 to 100%. For the same compound, the melting point was 50 to 52 °C, the inhibition at 25 ppm [6] was under 80% and the pest or weed control at 100 ppm [7] was under 25%. It also gave an inhibition at 25 ppm [8] of over 80%, a pest or weed control at 100 ppm [9] of under 25% and an inhibition at 25 ppm [10] of under 80%.
With `COc1ccnc(C(=O)N[C@H]2COC(=O)[C@H](Cc3ccccc3)[C@@H](OC(=O)C(C)C)[C@H](C)OC2=O)c1OCOCCCl` [Compound 14] the pest or weed control at 100 ppm [1] was 75 to 100%, the inhibition at 25 ppm [2] was under 80% and the inhibition at 25 ppm [3] was under 80%. The pest or weed control at 100 ppm [4] was 75 to 100%, the inhibition at 25 ppm (Ustilago maydis (USTIMA)) was under 80% and the pest or weed control at 100 ppm [5] was 75 to 100%. It also gave a melting point of 140 to 143 °C, an inhibition at 25 ppm [6] of under 80% and a pest or weed control at 100 ppm [7] of under 25%. It also gave an inhibition at 25 ppm [8] of over 80%, a pest or weed control at 100 ppm [9] of under 25% and an inhibition at 25 ppm [10] of under 80%.
Work on `COc1ccnc(C(=O)N[C@H]2COC(=O)[C@H](Cc3ccccc3)[C@@H](OC(=O)C(C)C)[C@H](C)OC2=O)c1OCOCCC#N` [Compound 15] yielded a pest or weed control at 100 ppm [1] of 75 to 100%, an inhibition at 25 ppm [2] of over 80% and an inhibition at 25 ppm [3] of under 80%. It also gave a pest or weed control at 100 ppm [4] of 75 to 100%, an inhibition at 25 ppm (Ustilago maydis (USTIMA)) of over 80% and a pest or weed control at 100 ppm [5] of 75 to 100%. The melting point was 62 to 67 °C, the inhibition at 25 ppm [6] was under 80% and the pest or weed control at 100 ppm [7] was under 25%. For the same compound, the inhibition at 25 ppm [8] was over 80%, the pest or weed control at 100 ppm [9] was under 25% and the inhibition at 25 ppm [10] was under 80%.
